Values joined by “and” are separate entries in the source; they are usually repeats but may differ in a detail not shown here. Identical values can stand only once. Toxic doses and inconclusive results are not listed.

The test system of the assay is CD2F1 mice, L1210 leukemia ip, survival T/C. The assay can be described thus: NCI In Vivo Anticancer Drug Screen. Data for tumor model L1210 Leukemia (intraperitoneal) in CD2F1 (CDF1) mice. To be noted: higher = longer survival. Summed up:
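Ratio T/C, where T is the treated-group value and C the vehicle-dosed control value, from mice implanted with a transplantable tumor.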

Setting [1] is: endpoint: mean survival time, dose: 12.5 mg/kg/injection, schedule: Q01DX005 (ip), vehicle: water.
[2] abbreviates: endpoint: mean survival time, dose: 25.0 mg/kg/injection, schedule: Q01DX005 (ip), vehicle: water.
Where [3] appears, read: endpoint: mean survival time, dose: 50.0 mg/kg/injection, schedule: Q01DX005 (ip), vehicle: water.
Where [4] appears, read: endpoint: mean survival time, dose: 100.0 mg/kg/injection, schedule: Q01DX005 (ip), vehicle: water.
[5] abbreviates: endpoint: mean survival time, dose: 200.0 mg/kg/injection, schedule: Q01DX005 (ip), vehicle: water.
Setting [6] is: endpoint: mean survival time, dose: 100.0 mg/kg/injection, schedule: Q04DX003 (ip), vehicle: saline with Tween-80.
The mark [7] stands for this setting: endpoint: mean survival time, dose: 200.0 mg/kg/injection, schedule: Q04DX003 (ip), vehicle: saline with Tween-80.
Setting [8] is: endpoint: mean survival time, dose: 400.0 mg/kg/injection, schedule: Q04DX003 (ip), vehicle: saline with Tween-80.
Where [9] appears, read: endpoint: mean survival time, dose: 100.0 mg/kg/injection, schedule: Q01DX009 (ip), vehicle: saline with Tween-80.
Where [10] appears, read: endpoint: mean survival time, dose: 200.0 mg/kg/injection, schedule: Q01DX009 (ip), vehicle: saline with Tween-80.
Setting [11] is: endpoint: mean survival time, dose: 12.5 mg/kg/injection, schedule: Q04DX002 (ip), vehicle: saline with Tween-80.
Where [12] appears, read: endpoint: mean survival time, dose: 25.0 mg/kg/injection, schedule: Q04DX002 (ip), vehicle: saline with Tween-80.
Where [13] appears, read: endpoint: mean survival time, dose: 50.0 mg/kg/injection, schedule: Q04DX002 (ip), vehicle: saline with Tween-80.
Setting [14] is: endpoint: mean survival time, dose: 100.0 mg/kg/injection, schedule: Q01DX001 (ip), vehicle: saline with Tween-80.
Where [15] appears, read: endpoint: mean survival time, dose: 200.0 mg/kg/injection, schedule: Q01DX001 (ip), vehicle: saline with Tween-80.
The mark [16] stands for this setting: endpoint: mean survival time, dose: 400.0 mg/kg/injection, schedule: Q01DX001 (ip), vehicle: saline with Tween-80.
Setting [17] is: endpoint: mean survival time, dose: 50.0 mg/kg/injection, schedule: Q01DX009 (ip), vehicle: saline with Tween-80.
The mark [18] stands for this setting: endpoint: mean survival time, dose: 12.5 mg/kg/injection, schedule: Q01DX009 (ip), vehicle: saline.
Setting [19] is: endpoint: mean survival time, dose: 25.0 mg/kg/injection, schedule: Q01DX009 (ip), vehicle: saline.
[20] abbreviates: endpoint: mean survival time, dose: 50.0 mg/kg/injection, schedule: Q01DX009 (ip), vehicle: saline.
Where [21] appears, read: endpoint: mean survival time, dose: 6.25 mg/kg/injection, schedule: Q04DX003 (ip), vehicle: distilled water + Tween-80.
Setting [22] is: endpoint: mean survival time, dose: 12.5 mg/kg/injection, schedule: Q04DX003 (ip), vehicle: distilled water + Tween-80.
Setting [23] is: endpoint: mean survival time, dose: 25.0 mg/kg/injection, schedule: Q04DX003 (ip), vehicle: distilled water + Tween-80.
Where [24] appears, read: endpoint: mean survival time, dose: 50.0 mg/kg/injection, schedule: Q04DX003 (ip), vehicle: distilled water + Tween-80.
[25] abbreviates: endpoint: mean survival time, dose: 100.0 mg/kg/injection, schedule: Q04DX002 (ip), vehicle: saline with Tween-80.
The mark [26] stands for this setting: endpoint: mean survival time, dose: 200.0 mg/kg/injection, schedule: Q04DX002 (ip), vehicle: saline with Tween-80.
[27] abbreviates: endpoint: mean survival time, dose: 400.0 mg/kg/injection, schedule: Q04DX002 (ip), vehicle: saline with Tween-80.

For the molecule `O=c1c2ncn(C3CC(O)C(O)C(CO)O3)c2ncn1C1CC(O)C(O)C(CO)O1` (stereo unspecified), the T/C under setting [1] is 108 % of control; the T/C under setting [2] is 97 % of control; the T/C under setting [3] was 100 % of control; the T/C under setting [4] was 97 % of control; the T/C under setting [5] is 97 % of control.
With `O=c1[nH][nH]c2ccccc12`, the T/C is 98 % of control under setting [6], 94 % of control under setting [7] and 98 % of control under setting [8].
In the case of `CCC1(O)C(=O)OCc2c1cc1n(c2=O)Cc2cc3ccc(/C=N/N=C(N)N)cc3nc2-1` (stereo unspecified), the T/C is 106 % of control (endpoint: median survival time, dose: 10.0 mg/kg/injection, schedule: Q04DX002 (ip), vehicle: saline with Tween-80); 113 % of control (endpoint: median survival time, dose: 20.0 mg/kg/injection, schedule: Q04DX002 (ip), vehicle: saline with Tween-80); 102 % of control (endpoint: median survival time, dose: 40.0 mg/kg/injection, schedule: Q04DX002 (ip), vehicle: saline with Tween-80); 102 % of control (endpoint: median survival time, dose: 80.0 mg/kg/injection, schedule: Q04DX002 (ip), vehicle: saline with Tween-80).
`CN(C)c1ccc(/C=N/NC(=O)COc2ccccc2)cc1`: the T/C under setting [9] is 91 % of control and the T/C under setting [10] is 89 % of control.
With `CCCc1cc(CCC)nc(NNc2nc(CCC)cc(CCC)n2)n1`, the T/C is 96 % of control under setting [6], 94 % of control under setting [7] and 96 % of control under setting [8].
Turning to `CN1CC2C(O)CCC1CC2O` (stereo unspecified), the T/C was 105 % of control (endpoint: mean survival time, dose: 100.0 mg/kg/injection, schedule: Q04DX002 (ip), vehicle: saline) and 90 % of control (endpoint: mean survival time, dose: 200.0 mg/kg/injection, schedule: Q04DX002 (ip), vehicle: saline).
For the molecule `CC1SC(C(C)(C)C)SC(C)C1C(C)(C)C` (stereo unspecified), the T/C under setting [11] was 102 % of control, the T/C under setting [12] was 102 % of control and the T/C under setting [13] was 102 % of control.
In the case of `O=C(O)c1cnc(Cl)c(Br)c1`, the T/C was 103 % of control under setting [14]; 97 % of control under setting [6]; 93 % of control under setting [15]; 93 % of control under setting [7]; 98 % of control under setting [16]; 93 % of control under setting [8].
Regarding `O=C(O)C(O)C(O)C(O)C(O)CO` (stereo unspecified), the T/C under setting [17] was 109 % of control, the T/C under setting [9] is 97 % of control and the T/C under setting [10] was 106 % of control.
For `COc1cc(C)c2c(c1C=O)Oc1c(c(C)c(O)c3c1C(O)OC3=O)OC2=O` (stereo unspecified), the T/C is 94 % of control (endpoint: mean survival time, dose: 3.12 mg/kg/injection, schedule: Q01DX009 (ip), vehicle: saline); 92 % of control (endpoint: mean survival time, dose: 6.25 mg/kg/injection, schedule: Q01DX009 (ip), vehicle: saline); 100 % of control under setting [18]; 92 % of control under setting [19]; 97 % of control under setting [20].
As for `Cc1ccc([NH-])cc1C.Cc1ccc([NH-])cc1C.[Cl][Pt+2][Cl]`, the T/C is, setting by setting: (endpoint: mean survival time, dose: 3.12 mg/kg/injection, schedule: Q04DX003 (ip), vehicle: distilled water + Tween-80) 103 % of control; under setting [21], 103 % of control; under setting [22], 108 % of control; under setting [23], 106 % of control; under setting [24], 108 % of control.
As to `CCNCc1cc(Nc2nc(NC3CCC(N(C)C)CC3)c3ccccc3n2)ccc1OC` (stereo unspecified), the T/C is 97 % of control (endpoint: mean survival time, dose: 5.0 mg/kg/injection, schedule: Q01DX001 (ip), vehicle: saline); 96 % of control (endpoint: mean survival time, dose: 5.0 mg/kg/injection, schedule: Q01DX009 (ip), vehicle: saline); 92 % of control (endpoint: mean survival time, dose: 10.0 mg/kg/injection, schedule: Q01DX001 (ip), vehicle: saline); 96 % of control (endpoint: mean survival time, dose: 10.0 mg/kg/injection, schedule: Q01DX009 (ip), vehicle: saline); 97 % of control (endpoint: mean survival time, dose: 20.0 mg/kg/injection, schedule: Q01DX001 (ip), vehicle: saline); 107 % of control (endpoint: mean survival time, dose: 20.0 mg/kg/injection, schedule: Q01DX009 (ip), vehicle: saline).
Turning to `S=C(N/N=C/c1ccccn1)Nc1ccccn1`, the T/C was 103 % of control under setting [25], 114 % of control under setting [26] and 91 % of control under setting [27].
Take `NC(=O)N/N=C/COC(=O)c1ccccc1`: the T/C reads like this: under setting [14], 93 % of control; under setting [15], 91 % of control; under setting [16], 98 % of control.
`O=C(O)C1=CCCc2ccc(F)cc21`: the T/C is 100 % of control (endpoint: median survival time, dose: 50.0 mg/kg/injection, schedule: Q04DX002 (ip), vehicle: saline with Tween-80); 100 % of control (endpoint: median survival time, dose: 100.0 mg/kg/injection, schedule: Q04DX002 (ip), vehicle: saline with Tween-80); 88 % of control (endpoint: median survival time, dose: 200.0 mg/kg/injection, schedule: Q04DX002 (ip), vehicle: saline with Tween-80); 111 % of control (endpoint: median survival time, dose: 400.0 mg/kg/injection, schedule: Q04DX002 (ip), vehicle: saline with Tween-80).
For the molecule `COc1ccc(/C=C/c2ccccc2)cc1`, the T/C is, setting by setting: under setting [14], 95 % of control; under setting [15], 88 % of control; under setting [16], 86 % of control.
On to `Cn1cnc([N+](=O)[O-])c1Sc1cn(C2CC(O)C(CO)O2)c(=O)[nH]c1=O` (stereo unspecified), for which the T/C runs as follows: under setting [1], 102 % of control; under setting [2], 102 % of control; under setting [3], 104 % of control; under setting [4], 98 % of control; under setting [5], 106 % of control.
Regarding `Nc1cc2c(c[n+](CCCCCCCC[n+]3cc4c5ccccc5c(N)cc4c4ccccc43)c3ccccc23)c2ccccc12`, the T/C was 114 % of control (endpoint: mean survival time, dose: 0.78 mg/kg/injection, schedule: Q04DX003 (ip), vehicle: other); 157 % of control (endpoint: mean survival time, dose: 1.56 mg/kg/injection, schedule: Q04DX003 (ip), vehicle: other); 124 % of control (endpoint: mean survival time, dose: 3.13 mg/kg/injection, schedule: Q04DX003 (ip), vehicle: other); 157 % of control (endpoint: mean survival time, dose: 12.5 mg/kg/injection, schedule: Q04DX003 (ip), vehicle: other); 124 % of control and 103 % of control (endpoint: mean survival time, dose: 50.0 mg/kg/injection, schedule: Q04DX003 (ip), vehicle: other).
As to `O=C(CNC(=O)NCc1ccco1)N/N=C/c1c(O)ccc2ccccc12`, the T/C under setting [17] is 93 % of control, the T/C under setting [9] is 97 % of control and the T/C under setting [10] is 101 % of control.
In the case of `O=C(C=P(CC[PH+](Cc1ccccc1)Cc1ccccc1)(Cc1ccccc1)Cc1ccccc1)c1ccccc1.[Cl][Pd][Cl]`, the T/C (endpoint: mean survival time, dose: 3.13 mg/kg/injection, schedule: Q04DX003 (ip), vehicle: distilled water + Tween-80) is 98 % of control; the T/C under setting [21] is 100 % of control; the T/C under setting [22] was 104 % of control; the T/C under setting [23] was 102 % of control; the T/C under setting [24] is 96 % of control; the T/C (endpoint: mean survival time, dose: 100.0 mg/kg/injection, schedule: Q04DX003 (ip), vehicle: distilled water + Tween-80) was 96 % of control. In addition, the T/C (endpoint: mean survival time, dose: 200.0 mg/kg/injection, schedule: Q04DX003 (ip), vehicle: distilled water + Tween-80) is 96 % of control.
Take `c1ccc(CCSCCSCCc2ccccn2)nc1`: the T/C was 101 % of control under setting [13], 113 % of control under setting [25], 101 % of control under setting [26] and 93 % of control under setting [27].
As to `C=C(Br)CNC(=O)OC`, the T/C was 102 % of control under setting [18], 104 % of control under setting [19], 112 % of control under setting [20] and 96 % of control under setting [6].
Take `CC(=O)N=C1C=C(NC(C)=O)C(=O)c2ncccc21`: the T/C reads like this: (endpoint: mean survival time, dose: 6.25 mg/kg/injection, schedule: Q04DX002 (ip), vehicle: saline with Tween-80) 95 % of control; under setting [11], 119 % of control; under setting [12], 119 % of control.

The record behind these values is PubChem BioAssay AID256 (DTP/NCI, 2004).
